Entries after “also recorded” stand apart in the source; their conditions may differ.
Columns and labels:
[1] = system: PfUIS3@Pb; experiment: Reversal of C4 effect by autophagy inhibitor, PfUIS3@Pb-infected Huh7 cells; type: cell-based, P. berghei expressing P. falciparum UIS3; conditions: 50 μM with 1 μM C4, added 2 h before infection, 24 h post-infection
Method: C4 and Chloroquine were added to the cells 2 h before infection. The effect was analysed at 24 h post-infection using flow cytometry by quantifying the EEFs number in infected cells. Data represent means±SEM. Pooled data from 4 independent experiments are presented. Statistical significance was assessed using the unpaired two-tailed t-test. *** P<0.001, **** P<0.0001.
To perform the flow cytometry analysis, Huh7 cells were seeded on a 24 well plate (50,000 cells/well) in RPMI and DMEM media respectively. The next day, media was replaced with different compounds (10 μM)/C4 (various conc.)/1 μM C4/1 μM C4+50 μM Chloroquine containing media, as appropriate in different experiments. Cells were then infected with P. bergehi/PfUIS3@Pb parasites and analysed by flow cytometry at 2 h/24 h post infection. DMSO was used as control and Primaquine was used as the positive control. For flow cytometry, infected cells were trypsinized and resuspended in 300 μl of media. 50 μl of each sample were analysed on BD Accuri C6 as described in Hanson et al. Data were analysed using FlowJo software. […]

[2] = system: P. berghei; experiment: Reversal of C4 effect by autophagy inhibitor, P. berghei-infected Huh7 cells; type: cell-based; conditions: 50 μM with 1 μM C4, added 2 h before infection, 24 h post-infection
[3] = system: HeLa cells; experiment: Starvation-induced autophagy in HeLa cells, p62 immunoblot; type: cell-based; conditions: 1 μM for 24 h, then EBBS amino-acid starvation 7 h
Method: FIG. 8B is a bar graph showing the p62 levels before and after amino acid starvation were calculated as the ratio of p62 to y tubulin (loading control). Data represent means±SEM (n=2). Statistical significance was assessed using the unpaired two-tailed t-test. ns: non-significant.
As C4 acts on a protein-protein interaction at the host-parasite interface, the effect of C4 administration on host cell normal autophagy activity was determined. To that end, autophagy was induced in HeLa cells in the presence and absence of C4.
To perform the foregoing study, HeLa cells (ATCC), which had been maintained under standard culture conditions in DMEM medium supplemented with 10% FCS, 1% glutamine, 1% penicillin/streptomycin, were treated with 1 μM C4 or 0.0001% DMSO (control) for 24 h, and then changed from normal growth medium to EBBS to induce amino-acid starvation dependent autophagy. After 7 h, cells were collected in lysis buffer (50 mM NaCl, 50 mM Tris-Cl pH 8, 5 mM EDTA pH 8, 1% Triton X-100, protease inhibitor) and analysed by western blot using the following antibodies: p62 (rabbit polyclonal, Sigma-Aldrich, P0067, 1:1000) and gamma-tubulin (mouse monoclonal, Sigma-Aldrich, T5326, 1: 10,000). p62 levels were measured by quantifying the ratio of p62 to tubulin signals using Image Lab.

[4] = system: P. berghei; experiment: Sporozoite invasion of Huh7 cells, EEFs at 2 h post-infection by flow cytometry; type: cell-based; conditions: 1 μM, added 2 h before infection
Method: FIG. 5E is a bar graph showing the effect of 1 μM C4 on P. berghei numbers in Huh7 cells as quantified by number of EEFs at 2 h post-infection. C4 was added to the cells 2 h before infection. EEFs were quantitated using flow cytometry. Data represent means±SEM (n=3). Non-parametric two-tailed Mann-Whitney test was used to compare the effect of DMSO control and C4. ns: non-significant.
(§1) To perform the flow cytometry analysis, Huh7 cells were seeded on a 24 well plate (50,000 cells/well) in RPMI and DMEM media respectively. The next day, media was replaced with different compounds (10 μM)/C4 (various conc.)/1 μM C4/1 μM C4+50 μM Chloroquine containing media, as appropriate in different experiments. Cells were then infected with P. bergehi/PfUIS3@Pb parasites and analysed by flow cytometry at 2 h/24 h post infection. DMSO was used as control and Primaquine was used as the positive control. For flow cytometry, infected cells were trypsinized and resuspended in 300 μl of media. 50 μl of each sample were analysed on BD Accuri C6 as described in Hanson et al. Data were analysed using FlowJo software.

[5] = system: P. berghei ANKA; experiment: Immunofluorescence microscopy of EEF number and size, P. berghei-infected Huh7 cells; type: cell-based; conditions: 1 μM
Method: (§2) To assess C4 effect on EEF number and size, Huh7 cells were plated on glass coverslips (40,000/cover slip), treated with 1 μM C4 or 0.0001% DMSO (control) and after 2 h infected with P. berghei/PfUIS3@Pb sporozoites (40,000/cover slip). Huh7 cells (obtained from ATCC) were cultured under standard conditions in RPMI 1640 and DMEM medium (Gibco Invitrogen) respectively supplemented with 10% FCS, 1% glutamine, 1% non-essential amino acids (RPMI 1640), 1% penicillin/streptomycin, and 1% Hepes (RPMI 1640).
(§3) To characterize PfUIS3@Pb parasite line, Huh7 cells were seeded on cover slips as above and infected with WT (P. berghei ANKA (507cl1)/PfUIS3@Pb sporozoites (40,000/cover slip). After 24 h, cells were fixed in 4% paraformaldehyde (ChemCruz) for 15 min at room temperature (RT), permeabilized/blocked (PBS, 0.1% Triton X-100, 1% BSA) for 1 h at RT and incubated with primary antibodies (diluted in blocking solution) for overnight at 4° C. Cells were then washed with PBS, incubated with AlexaFluor-conjugated secondary antibodies (Jackson ImmunoResearch Laboratories) and Hoechst 33342 (Invitrogen) for 1 h at RT and washed again. The coverslips were mounted with Fluoromount (SouthernBiotech). […] GFP signal was detected using AlexaFluor 488 conjugated anti GFP (rabbit polyclonal, Invitrogen, A-21311, 1:500) antibody. […] All images were processed and analysed using ImageJ.

[6] = system: PfUIS3@Pb; experiment: Immunofluorescence microscopy of EEF number and size, PfUIS3@Pb-infected Huh7 cells; type: cell-based, P. berghei expressing P. falciparum UIS3; conditions: 1 μM
Method: as §2, §3

[7] = system: PfUIS3@Pb; experiment: PfUIS3@Pb infection of Huh7 cells (flow cytometry EEF count); type: cell-based, P. berghei expressing P. falciparum UIS3; conditions: 24 h post-infection
Source text: The following two Plasmodium parasite strains were used in the PHS: i) the rodent wild-type (WT) GFP expressing P. berghei ANKA parasite strain (259cl2, obtained from the Leiden Malaria Research Group); and ii) the parasite line, PfUIS3@Pb, created by inserting the gene encoding P. falciparum UIS3 with an added a 2 HA tag (UIS3-HA) into the P. berghei parasite (507cl1, obtained from the Leiden Malaria Research Group) at the UIS3 locus under the control of native 5′ and 3′ regulatory sequences. More particularly, to replace the P. berghei UIS3 open reading frame (ORF) with UIS3 ORF of P. falciparum, a double crossover recombination was performed as described in FIG. 2A. Transfection was carried out by electroporation of purified schizonts as previously described. […]
The PHS was performed using Huh7 cells infected with sporozoites from either parasite lines with or without adding each of the compounds, at a concentration of 10 μM, 2 h before sporozoite addition. Infection level was determined either by measuring luminescent levels of the GFP and firefly luciferase-expressing P. berghei ANKA (676m1cl1), (obtained from the Leiden Malaria Research Group) or the number of GFP-positive infected cells by flow cytometry, representing Plasmodium exo-erythrocytic form, EEF, (as PfUIS3@Pb parasite line express GFP). […]

[8] = system: P. berghei; experiment: P. berghei infection in Atg5+/+ and Atg5-/- mouse embryonic fibroblasts; type: cell-based; conditions: 10 μM
Method: Data represent means±SEM (n=3). Statistical significance was assessed using the unpaired two-tailed t-test. ns: non-significant, **** P<0.0001.
To test the hypothesis that high-affinity binding of C4 to the UIS3-LC3 complex could interfere with the function of the UIS3-LC3 complex to cause a decrease Plasmodium infection by interfering with the parasite's ability to evade host cell autophagy, genetic and chemicals tools were used to assess the anti-parasitic activity of C4 in autophagy-competent and autophagy-deficient cells.
MEFs used in these studies were obtained from the Riken BioResource Research Center (Atg5^+/+ (RCB2710) and Atg5^−/− (RCB2711). (Kuma et al.) MEFs were cultured in DMEM supplemented as described above for Huh7 cells. MEFs were validated through quantitative reverse transcription PCR.

[9] = system: P. berghei ANKA; experiment: P. berghei infection of Huh7 cells (luciferase parasite load / flow cytometry EEF count); type: cell-based
Method: The PHS was performed using Huh7 cells infected with sporozoites from either parasite lines with or without adding each of the compounds, at a concentration of 10 μM, 2 h before sporozoite addition. Infection level was determined either by measuring luminescent levels of the GFP and firefly luciferase-expressing P. berghei ANKA (676m1cl1), (obtained from the Leiden Malaria Research Group) or the number of GFP-positive infected cells by flow cytometry, representing Plasmodium exo-erythrocytic form, EEF, (as PfUIS3@Pb parasite line express GFP).
as §1
The IC50 for C4 in P. berghei ANKA-infected and PfUIS3@Pb-infected cells at 24 h. Post-infection was 93.3 nM and 188.2 nM, respectively. To analyze C4 dose-dependent effect, media were replaced with DMSO (0.0001%)/C4 (various conc.)-containing media. After 2 h, cells were infected with luciferase-expressing P. berghei sporozoites (10,000/well) and processed for Luciferase assay at 24 h post-infection. Flow cytometry was used to determine EEF counts.

[10] = target: UIS3-LC3 complex (Plasmodium falciparum, UniProt Q8IEU1); experiment: Isothermal calorimetry (ITC), C4 titrated into saturated solution of UIS3 with LC3; type: binding, P. falciparum
Method: ITC experiments were performed using MicroCal-ITC 200 (GE healthcare) at 25° C. The data were analyzed using MicroCal ITC-origin analysis software based on one-site binding reaction. For direct interaction studies, a 10 μM concentration of pfUIS3 was titrated against 0.100 μM of LC3. For competition assay, a saturated solution of UIS3 with LC3 was titrated against 100 μM of C4. C4 was resuspended in the same final buffer (with 2% DMSO) in which UIS3 and LC3 was dissolved.

[11] = Solubility in DMSO; type: physicochemical
[12] = target: Microtubule-associated protein 1A/1B-light chain 3 (LC3), purified recombinant (UniProt Q9GZQ8); experiment: ITC, 100 µM LC3 titrated into 10 µM PfUIS3, 25 °C, one-site model

CCN(CC)CCCC(C)Nc1ccnc2cc(Cl)ccc12 (stereo not shown) [Chloroquine]
Reversal of anti-parasitic effect of C4 (EEF number) [1]: can be reverted | Reversal of anti-parasitic effect of C4 (EEF number) ([1]; listed as chloroquine): rescued the C4 effect | Reversal of anti-parasitic effect of C4 (EEF number) [2]: can be reverted | Reversal of anti-parasitic effect of C4 (EEF number) ([2]; listed as chloroquine): rescued the C4 effect

N#Cc1ccc(C(=O)N2CCN(Cc3ccc(-c4noc(-c5cccc(C(F)(F)F)c5)n4)cc3)CC2)cc1 [Compound C4]
Host cell response to exogenous autophagy stimulus (p62 levels) [3]: does not cause any impairment | Effect on sporozoite invasion of host cells [4]: did not affect | Parasite development, as measured by parasite area [5]: modest impact | Number of infected cells (microscopy) ([5]; added 2 h before infection): significant decrease | Parasite development, as measured by parasite area [6]: modest impact | Number of infected cells (microscopy) ([6]; added 2 h before infection): significant decrease | Number of EEFs / decrease in infection in phenotypic screen ([7]; 10 μM, added 2 h before infection, Huh7 cells): most effective compound; also recorded: highest decrease in infection | IC50 ([7]; PfUIS3@Pb-infected Huh7 cells, flow cytometry): 0.188 µM | Reduction in infection in Atg5−/− MEFs ([8]; autophagy-deficient cells): did not cause any reduction in infection | Impact on infection in Atg5+/+ MEFs ([8]; control cells): comparable to that observed for infected Huh7 cells | Effect on infection over time ([9]; 1 μM, from very early time-point, maintained through at least 48 h post-infection): decreased infection | Parasite load / decrease in infection in phenotypic screen ([9]; 10 μM, added 2 h before infection, 24 h post-infection, Huh7 cells): most effective compound; also recorded: highest decrease in infection | IC50 ([9]; Plasmodium berghei, Huh-7, P. berghei ANKA-infected Huh7 cells, 24 h post-infection, luciferase assay): 0.0933 µM | Affinity to UIS3-LC3 complex relative to direct UIS3-LC3 interaction [10]: 10 fold | Kd ([10]; 25° C., one-site binding model, 100 μM C4 into UIS3 saturated with LC3): 0.241 ± 0.0011 µM

Cc1c/c(=N\C(=O)N2CCC3(CC2)OCCO3)nc2c3ccccc3oc(O)c1-2 [Compound C8]
Solubility in DMSO [11]: insolubilities in DMSO

Cc1ccc(C)c(NC(=O)N2CCN(c3ccc(-c4noc(C5CCCCC5)n4)cc3)CC2)c1 [Compound C9]
Solubility in DMSO [11]: insolubilities in DMSO

Plasmodium falciparum Upregulated in infective sporozoites 3 (UIS3), purified recombinant myc-UIS3
Kd [12]: 2.15 µM

— patent US20220211698A1, “ANTI MALARIAL COMPOUNDS” (INSTITUTO DE MEDICINA MOLECULAR, priority 2020, published 2022)
